Experimental data taken from PMC9521028, “Lengthening the Guanidine–Aryl Linker of Phenylpyrimidinylguanidines Increases Their Potency as Inhibitors of FOXO3-Induced Gene Transcription” (ACS Omega, 2022).
Converted amounts (≈) assume the structure as drawn.

Tests used:
[1] = Estimation of compound solubility in water (saturated solution, UV-vis); type: physicochemical; conditions: aqueous buffer, thermodynamic from solid; 20 mM phosphate (pH 6.5) and 50 mM KCl buffer at 23 °C
Description: To estimate the solubility, we prepared saturated solutions of the compounds by adding 5 mg of each selected compound to 700 μL of 20 mM phosphate buffer (pH 6.5) containing 50 mM KCl. After 48 h of gentle agitation at room temperature (RT), the solutions were spun down, and the supernatant was filtered through 0.2 μm of SPARTAN 13/0.2 RC filter units (Merck KgaA, Darmstadt, Germany) and diluted 100–200× in the same phosphate buffer. The diluted solutions were transferred into the quartz cuvette, recording UV–vis absorption spectra in the range from 200 to 600 nm on a UV-1800 UV/visible scanning spectrophotometer (Shimadzu, Kyoto, Japan) at room temperature. The compound concentrations were estimated by the single point calibration using the absorption at wavelengths higher than 240 nm outside of DMSO absorption of 2000× diluted 50 mM DMSO-dissolved stock solution in phosphate buffer.

[2] = system: FOXO3 binding to the promoter region of DEPP1 in SH-EP/FOXO3 cells; assay: DEPP1-luciferase reporter assay of FOXO3 transcriptional activity; type: cell-based
Description: (§1) The ability of these compounds to inhibit FOXO3 transcriptional activity was further examined by assessing their effect on FOXO3 binding to the promoter region of decidual protein induced by progesterone 1 (DEPP1) after transfecting a DEPP1-luciferase reporter plasmid into SH-EP neuroblastoma cells stably expressing a 4-hydroxy-tamoxifen (4OHT)-regulated FOXO3(A3)ERtm transgene. […] In parallel, the toxicity of the compounds was tested by assessing their effect on endogenous DEPP1 and actin promoters in SH-EP cells.
Transcriptional activation of the DEPP1 promoter by conditional FOXO3 was assessed after transfection of a DEPP1-luciferase reporter plasmid pGS c10orf10 Prom wt (DEPP1-LUC)[20] into SH-EP/FOXO3 cells using the JetPrime reagent (Polyplus, Berkeley). After 24 h of transfection, mTFP fluorescent protein expression from a cotransfected expression vector was assessed by live cell fluorescence microscopy to verify equal transfection rates before seeding cells into 24-well plates. After 48 h of transfection, the cells were pretreated with indicated concentrations of each compound (30 min) before adding 100 nM 4-hydroxy-tamoxifen (4OHT) for 3 h to activate ectopic FOXO3. Firefly-luciferase was analyzed using the Luciferase Assay System (Promega, Madison). Luminescence intensity was measured in a Hidex Chameleon—Multilabel Microplate Reader (Hidex, Turku, Finland).

[3] = system: endogenous DEPP1 and actin promoters in SH-EP cells; assay: Toxicity control: endogenous DEPP1 and actin promoter luciferase reporters; type: cell-based; conditions: 0.78 μM, SH-EP cells
Description: as §1
For this purpose, 2 × 10^6 SH-EP cells were transfected with either a DEPP1-LUC-reporter plasmid or an actin-LUC reporter plasmid using JetPrime reagent (Polyplus, Berkeley). Actin-LUC was constructed by inserting a 1.3 kb fragment of the chicken β actin promoter into pGL3-luc reporter vector (Promega, Madison). After 24 h of transfection, the cells were seeded into 24-well plates. After another 24 h, the cells were pretreated with indicated concentrations of compound for 3.5 h. Firefly-luciferase was analyzed using the Luciferase Assay System (Promega, Madison). Luminescence intensity was measured in a Hidex Chameleon—Multilabel Microplate Reader (Hidex, Turku, Finland).

[4] = system: FOXO3-induced apoptotic cell death in SH-EP/FOXO3 neuroblastoma cells; assay: Resazurin early cell death evaluation assay; type: cell-based
Description: Moreover, we also attempted to determine the IC50 values of 5ci, 5cj, and 5db using a resazurin early cell death evaluation assay in cells expressing a conditional FOXO3 allele that triggers apoptotic cell death upon activation.
Neuroblastoma cells SH-EP/FOXO3 were seeded into 96-well plates and treated with concentrations 0.05, 0.1, 0.2, 0.39, 0.78, 1.56, 3.125, 6.25, 12.5, 18.75, and 25 μM of 5ca and its derivatives 30 min before activating ectopic FOXO3 by 100 nM 4OHT. For 5ca derivatives, concentrations above 3.125 μM had to be excluded from the analysis due to spontaneous cell death induction. Resazurin salt (Sigma-Aldrich s.r.o., St. Louis, Missouri) was diluted to a final concentration of 0.01% (wt/vol), and 20 μL of this dilution was added to 200 μL of the cell culture in each well 24 h after FOXO3 activation. Resazurin is reduced in viable cells to red-fluorescent resoflurin, which was quantified in a Hidex Chameleon—Multilabel Microplate Reader (Hidex, Turku, Finland) at filter settings 544 nm Ex/616 nm Em.

[5] = target: T1, FOXO3-DBD (Homo sapiens, UniProt O43524); assay: NMR (1H STD and 1H-15N HSQC titration) of compound binding to FOXO3-DBD; conditions: 15 μM FOXO3-DBD, 1 mM compound, pH 6.5, 298 K
T1 construct: DNA encoding human FOXO3-DBD (residues 156–269); GST (N, cleaved yes); made in house; host or cells: E. coli BL21(DE3)
Description: STD experiment was performed at 298 K on a Bruker Avance III HD 850 MHz spectrometer (Bruker, Billerica, Massachusetts) equipped with a ^13C/^1H/^15N cryoprobe. The 550 μL sample contained 15 μM FOXO3-DBD and 1 mM 5cj in 20 mM phosphate buffer (pH 6.5) supplemented by 50 mM KCl and 10% ^2H2O. ^1H STD NMR was performed using a standard “stddiffesgp” pulse sequence with excitation sculpting and pulse-field gradients for water suppression. On-resonance irradiation was done at −0.54 ppm and off-resonance irradiation at 30 ppm, using a 50 ms shaped Eburp2.1000 pulse of power 40 dB for a saturation time of 3 s. The difference spectra were obtained by subtracting the on-resonance spectrum from the off-resonance spectrum. The spectra were analyzed using TopSpin software (v3.6).
2D ^1H–^15N HSQC spectra were acquired on both Bruker Avance III HD 850 MHz and Bruker Avance III 600 MHz (Bruker, Billerica, Massachusetts) spectrometers equipped with a ^13C/^1H/^15N cryoprobe. All HSQC experiments were measured at 298 K in Shigemi NMR tubes (Shigemi Co., Ltd., Tokyo, Japan) containing 350 μL of sample in 100 mM phosphate buffer (pH 6.5) supplemented with 50 mM KCl and 10% ^2H2O. […] All spectra were processed in TopSpin software (v3.6) and evaluated in Sparky software (v3.1).[43] CSP values obtained from 2D ^1H–^15N HSQC experiments were calculated using the following formula[44] […]

T1 sequence (O43524 156-269): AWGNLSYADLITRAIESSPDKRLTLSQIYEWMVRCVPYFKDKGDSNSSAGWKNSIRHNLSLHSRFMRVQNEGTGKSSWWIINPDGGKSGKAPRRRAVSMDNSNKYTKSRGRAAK

With `Cc1cc(C)nc(NC(=N)NCCc2ccccc2)n1` [5cj, 1-(4,6-Dimethylpyrimidin-2-yl)-3-phenethylguanidine] as the compound, how does the solubility at 48 h [1] read?
The solubility at 48 h was 13 mM (≈ 3500 µg/mL).

And the “potency in blocking FOXO3 binding to the promoter region of DEPP1” value ([2]; 25 and 12.5 μM compound)?
Its value is “the most potent compounds”.

What about the “efficiency of blocking FOXO3 binding to the promoter region of DEPP1” value ([2]; lower concentrations, down to 0.78 μM) of the same compound?
Its value is “more efficiently than 5cg, 5da, and 5dc”.

And the “inhibition of FOXO3-mediated transcription” value ([2]; lowest concentration tested, 0.78 μM)?
The value was “significantly inhibited”.

What about the “inhibitory potency on target gene activation by FOXO3 (in words)” value ([2]; summary of the reporter data, Figures 2, S2, S3) of the same compound?
The value was “highest inhibitory potency”.

What about the “effect on endogenous DEPP1 and actin promoters (toxicity markers)” value [3] of the same compound?
The value was “without any effect”.

What about the IC50 ([4]; Neuroblastoma cell, SH-EP/FOXO3 cells, 100 nM 4OHT, 24 h, approximate, toxicity prevented accurate determination, read-out: IC50, inhibition of FOXO3-induced cell death) of the same compound?
The IC50 was roughly 1000 nM.

What about the “concentration above which the compound is toxic (spontaneous cell death)” value ([4]; SH-EP/FOXO3 cells) of the same compound?
The value was “higher than 4 μM”.

What about the “fold lower IC50 than that of 5ca” value ([4]; resazurin assay, ratio to 5ca IC50 of ∼8 μM) of the same compound?
Its value is 8–16 ×.

What about the “1H STD NMR signals with FOXO3-DBD” value [5] of the same compound?
The value was “STD signals were detected”.
